Some test systems named below: HCT-15 colon; SR leukemia; NCI-H460 lung; HOP-62 NSCLC; OVCAR-4 ovarian; OVCAR-3 ovarian; SF-268 CNS; MOLT-4 leukemia; HT29 colon.
Assay in all cases: NCI tumour cell line growth inhibition, 48 h

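Tested at 5 concentrations; 48 h exposure; 96-well plates; endpoints linearly interpolated, else capped at highest concentration. TGI denotes the concentration required for complete inhibition of growth.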 Where only a bound is given, the exact number is not on record here.

Regarding `O=c1c2c([nH]c3cc4c(cc13)OCO4)-c1ccccc1CC2`, the TGI in the assay on HCT-15 colon, in the assay on SR leukemia, in the assay with NCI-H460 lung, with HOP-62 NSCLC, with OVCAR-4 ovarian and in the assay on OVCAR-3 ovarian was more than 100 µM in each case. The TGI with SF-268 CNS, in the assay with MOLT-4 leukemia and in the assay with HT29 colon was more than 100 µM each time.
With `COc1ccc2c(c1)C(O)(C(F)(F)F)c1cc(C(=O)C(F)(F)F)c3ccccc3c1N2` (stereo unspecified), the TGI with HCT-15 colon turned out to be 21 µM; in the assay on NCI-H460 lung, 22.3 µM; with OVCAR-4 ovarian it was 22.4 µM; in the assay with OVCAR-3 ovarian it was 29.4 µM; with SF-268 CNS it was 24.1 µM; in the assay on MOLT-4 leukemia, 33.8 µM. Moreover, in the assay with HT29 colon, the TGI came out at 20.3 µM.
Turning to `Cc1ccc(-c2c(N)[n+]([O-])c3ccccc3[n+]2[O-])cc1`, the TGI in the assay with HCT-15 colon came to 15.3 µM; with NCI-H460 lung, 47 µM; with HOP-62 NSCLC it was 31 µM; with OVCAR-4 ovarian it was 33.1 µM; in the assay with OVCAR-3 ovarian, 30.3 µM; with SF-268 CNS, 73.8 µM. Further, the TGI is more than 100 µM in the assay on MOLT-4 leukemia and 31.4 µM in the assay on HT29 colon.
For `CC1=NCCc2c1[nH]c1cc(O)ccc21`, the TGI in the assay with HCT-15 colon, in the assay with NCI-H460 lung, in the assay on HOP-62 NSCLC, in the assay on OVCAR-4 ovarian, in the assay on OVCAR-3 ovarian and in the assay with SF-268 CNS was more than 100 µM each time. The TGI with MOLT-4 leukemia and in the assay on HT29 colon was more than 100 µM in each case.
For the molecule `COc1cc2c(cc1OC)C(N(C)C)C(c1ccccc1)=C2Cl` (stereo unspecified), the TGI with HCT-15 colon came out at 34.1 µM; with SR leukemia it was 50.4 µM; in the assay with NCI-H460 lung, 39.2 µM; in the assay on HOP-62 NSCLC, 98.8 µM; with OVCAR-4 ovarian it was 65 µM; in the assay on OVCAR-3 ovarian, 40.8 µM. Besides, the values for the TGI with MOLT-4 leukemia and in the assay on HT29 colon were 39.6 µM and 36.4 µM, respectively.
For the molecule `COC(=O)c1csnn1`, the TGI with HCT-15 colon, in the assay with SR leukemia, with NCI-H460 lung, in the assay on HOP-62 NSCLC, with OVCAR-3 ovarian and in the assay with SF-268 CNS was more than 100 µM each time. Further, the TGI in the assay on MOLT-4 leukemia and with HT29 colon was more than 100 µM in each case.
On to `C=CCC1([C@H](C)[C@@H](OC(C)=O)c2cc(OC)c(OC)c(OC)c2)C[C@@H](OC)CCC1=O` (stereo partly specified), for which the TGI in the assay with HCT-15 colon came to 40.8 µM; with SR leukemia, 91.7 µM; in the assay with NCI-H460 lung, 62.4 µM; in the assay with HOP-62 NSCLC, 85.3 µM; in the assay with OVCAR-4 ovarian, 85.1 µM; in the assay on OVCAR-3 ovarian it was 50.5 µM. Moreover, the results for the TGI in the assay on SF-268 CNS, with MOLT-4 leukemia and in the assay on HT29 colon were 50.7 µM, 94.3 µM and 38 µM, respectively.
For the molecule `CC(C)(C)OC(=O)C#CC[C@H]1CCCC1/C=C/C(O)=C1/C(=O)NC(CCCNC(=O)OC(C)(C)C)C1=O` (stereo partly specified), the TGI with SR leukemia was more than 100 µM; in the assay with NCI-H460 lung, 61.6 µM; in the assay on HOP-62 NSCLC, more than 100 µM; in the assay on OVCAR-4 ovarian, 94.1 µM; in the assay with OVCAR-3 ovarian, more than 100 µM; in the assay on SF-268 CNS, 75.3 µM. Besides, the values for the TGI in the assay on MOLT-4 leukemia and with HT29 colon were 75.9 µM and more than 100 µM, respectively.
With `O=Cc1cn(C(=O)c2ccccc2)c2ccccc12`, the TGI with HCT-15 colon, with NCI-H460 lung, in the assay with HOP-62 NSCLC, with OVCAR-4 ovarian, in the assay with OVCAR-3 ovarian and in the assay on MOLT-4 leukemia was more than 100 µM each time. In the assay on HT29 colon, this molecule returned a TGI of more than 100 µM.
With `CC1CCCCc2nc3c(c(=O)n21)CCCC3` (stereo unspecified), the TGI in the assay with HCT-15 colon, in the assay on NCI-H460 lung, in the assay with HOP-62 NSCLC, with OVCAR-4 ovarian, in the assay on OVCAR-3 ovarian and in the assay with SF-268 CNS was more than 100 µM in each case. In addition, the TGI with MOLT-4 leukemia and with HT29 colon was more than 100 µM in each case.
For `COc1nc(NC2OCC(OC(C)=O)C(OC(C)=O)C2OC(C)=O)c(N=CC=Nc2c(NC3OCC(OC(C)=O)C(OC(C)=O)C3OC(C)=O)nc(OC)n(C)c2=O)c(=O)n1C` (stereo unspecified), the TGI in the assay on HCT-15 colon, with SR leukemia, with NCI-H460 lung, in the assay with HOP-62 NSCLC, in the assay on OVCAR-4 ovarian and with OVCAR-3 ovarian was more than 100 µM each time. Further, the TGI in the assay with SF-268 CNS and with HT29 colon was more than 100 µM each time.
With `Cc1cccc(NC(=O)CC(=O)N2N=C(N(CCC#N)c3ccc(Cl)cc3)CC2c2ccccc2)c1` (stereo unspecified), the TGI with SR leukemia, with NCI-H460 lung, with HOP-62 NSCLC, in the assay with OVCAR-4 ovarian, in the assay on OVCAR-3 ovarian and in the assay on SF-268 CNS was more than 100 µM throughout. Also, the TGI with MOLT-4 leukemia and with HT29 colon was more than 100 µM throughout.
Consider `COc1cccc(NC(=O)CC(=O)N2N=C(N(CCC#N)c3ccc(Cl)cc3)CC2c2ccccc2)c1` (stereo unspecified), for which the TGI with HCT-15 colon, with SR leukemia, in the assay on NCI-H460 lung, in the assay with HOP-62 NSCLC, in the assay with OVCAR-4 ovarian and with OVCAR-3 ovarian was more than 100 µM each time. Further, the TGI in the assay on SF-268 CNS, in the assay with MOLT-4 leukemia and in the assay with HT29 colon was more than 100 µM throughout.
Consider `CCCCCCCCCc1cc(=O)c2ccc(OCc3ccccc3)cc2o1`, for which the TGI with HCT-15 colon, in the assay on NCI-H460 lung, in the assay with HOP-62 NSCLC, with OVCAR-4 ovarian, with OVCAR-3 ovarian and in the assay with SF-268 CNS was more than 100 µM in each case. Moreover, the TGI in the assay with HT29 colon was more than 100 µM.
`CNC(=O)OCc1nc(SC2CCCCO2)n(C)c1COC(=O)NC` (stereo unspecified): the TGI in the assay with HCT-15 colon, in the assay on SR leukemia, with NCI-H460 lung, in the assay on HOP-62 NSCLC, with OVCAR-4 ovarian and in the assay on OVCAR-3 ovarian was more than 100 µM each time. Further, the TGI in the assay with SF-268 CNS, with MOLT-4 leukemia and with HT29 colon was more than 100 µM in each case.
On to `O=C(O)c1ccc([Se][Se]c2ccc(C(=O)O)cc2)cc1`, for which the TGI in the assay with HCT-15 colon was more than 100 µM; in the assay with NCI-H460 lung, 54.9 µM; with OVCAR-4 ovarian, 49.1 µM; with OVCAR-3 ovarian, 42.9 µM; in the assay with SF-268 CNS, more than 100 µM.

(Values after PubChem BioAssay (NCI).)
